For one assay, the system named is PBM tumor cells. The experiment in a line: Cytokine array of medium of PBM cells. The assay is classed as cell-based, mouse. As to conditions: olaparib-treated PBM cells; FIG. 19F. As for the experimental part: The PBM tumor cells were cultured in 6-well plate for 24 hrs and treated with olaparib or vehicle control. Drug was removed after 24 hrs' treatment, and cells were cultured in fresh medium for another 48 hrs. Cell culture supernatants were obtained by centrifugation at 1,500 g for 5 min at 4° C. to remove all the debris and cells then subjected to Cytokine array analysis (ARY028, R&D system) according to manufactories introduction. Briefly, the cell culture supernatants were mixed with a cocktail of biotinylated detection antibodies, and then incubated with the Mouse Cytokine Array. The array was then incubated with streptavidin-horseradish peroxidase followed by chemiluminescent detection. Array images were analyzed using the Image J software.

The test system of another assay is BP tumor cells. The assay can be described thus: Pro-inflammatory cytokine expression in BP tumor cells (RT-qPCR, IFNβ ELISA). The assay is classed as cell-based, mouse. As to conditions: olaparib two days. As for the experimental part:
Total RNA was extracted using RNeasy® Plus Mini Kit (QIAGEN, #74134). An iScript Reverse Transcription Supermix (Bio-Rad, #1708841) was used for the first-strand cDNA synthesis with 1 μg total RNA. Real-time PCR was performed using SYBR™ Select Master Mix (Thermo Fisher, #4472908) with gene-specific primers (mouse/16, forward 5′-[…]-3′, reverse 5′-[…]-3′; mouse//1b, forward 5′-[…]-3′, reverse 5′-[…]-3′; mouse Cxcl1, forward 5′-[…]-3′, reverse 5′-[…]-3′; mouse Ifnb, forward 5′-[…]-3′, reverse 5′-[…]-3′; mouse Ccl5, forward 5′-[…]-3′, reverse 5′-[…]-3′; mouse Cxcl10, forward 5′-[…]-3′, reverse 5′-[…]-3′; mouse Actb, forward 5′-[…]-3′, reverse 5′-[…]-3′; human IL6, forward 5′-[…]-3′, reverse 5′-[…]-3′; human IL1B, forward 5′-[…]-3′, reverse 5′-[…]-3′; human CXCL1, forward 5′-[…]-3′, reverse 5′-[…]-3′; human GAPDH, forward 5′-[…]-3′, reverse 5′-[…]-3′). Relative mRNA levels were calculated using the […]. Mouse Actb and human GAPDH were used as endogenous controls for mouse and human samples, respectively.
Tumor cells were treated with olaparib or DMSO vehicle control for two days. To assess IFNβ production by tumor cells, cell culture supernatants were harvested and subjected to centrifugation at 1,500×g for 10 min at 4° C. to remove floating cells and debris. IFNβ was then detected via mouse IFNβ ELISA Kit (Thermo Fisher, #424001) according to manufacturer's instructions.

For assay [1], the system named is PE tumors. The experiment in a line: Flow cytometry of immune cells in PE tumors and tumor-drainage lymph nodes. The assay is classed as in vivo, mouse. As to conditions: single-agent treatment; FIG. 30B. As for the experimental part: To obtain single-cell suspension from tumor mass, tumors were excised, minced and dissociated in collagenase buffer (DMEM supplemented with 5% FBS, 10 mM HEPES [Gibco), 100 μg/mL penicillin-streptomycin, 20 μg/mL DNase I [StemCell] and 1× collagenase/hyaluronidase [StemCell]) at 37° C. for 45 min. Tumor-draining lymph nodes were isolated from tumor-bearing mice and were mashed through 70 μm strainer using plunger of a syringe to obtain single-cell suspension.
For FACS staining, tissue cells were first stained with LIVE/DEAD Fixable Aqua Dead Cell Stain (Thermo Fisher) for 30 min on ice, followed by blocking with anti-CD16/32 (BioLegend) for 20 minutes on ice. Afterwards, cells were incubated with antibodies targeting surface biomarkers in FACS buffer for 30 minutes on ice.
For orientation: A flow cytometer gives signals particle by particle.

The subject of assay [2] is PE tumors. The assay can be described thus: PE (exon19del/T790M EGFR, Trp53 loss) tumor growth in FVB mice. The assay is classed as in vivo, mouse. The settings on record: start at about 400 mm^3; osimertinib 10 mg/kg daily by gavage; MSA-2 20 mg/kg i.p. every three days; FIG. 30A.
A further assay deals with DF86 PDX. The experiment in a line: DF86 ovarian PDX with human bone marrow monocytes in NSG mice. The assay is classed as in vivo. The source says:
(§1) For the PDX in vivo experiments, about 3×10^6 PDX tumor cells were mixed with 3×10^6 human bone marrow mononuclear cells in serum-free DMEM/F12 medium containing 50% Matrigel (CAT #70001, […] Technology) and intraperitoneally transplanted into NOD/SCID IL2Rgnull mice (NSG, The Jackson Laboratory). About three weeks after injection, PDX-bearing mice were equivalently divided into 4 groups according to the luminescent intensity and treated with vehicle control, olaparib, MSA-2 and olaparib in combination with MSA-2 using the same dosing and schedule that have been described above. Ascites was harvested for analysis after three weeks' treatment.
Tumors were chopped and digested in collagenase buffer as described previously (Ding et al., 2018 Cell Rep 25, 2972-2980.e2975). Single cell suspensions of tumor and ascites were obtained by filtering through 70 um strainers and treated with 1× eBioscience RBC lysis buffer (Thermo Fisher) before staining. Single cells suspensions were incubated with LIVE/DEAD Fixable Aqua Dead Cell Stain (Life Technologies, Cat #L34965) for 30 min and then blocked with anti-CD16/32 (Biolegend, clone 93) for 20 min on ice. Samples were then incubated with appropriate antibodies for 30 min on ice. Foxp3 staining buffer set (eBioscience, Cat #00-5523-00) was applied for intracellular markers staining. For the intracellular cytokine analysis, cells were stimulated with Leukocyte Activation Cocktail (BD Biosciences, Cat #550583) at 37° C. for 4-6 hours prior to FACS staining. The following antibodies were used in this study: antibodies were purchased from BioLegend unless otherwise indicated: CD45 (clone 30-F11), CD3ε (clone 145-2C11), CD4 (clone RM4-5), CD8 (clone 53-6.7), CD44 (clone IM7), CD62L (MEL-14), CD25 (PC61), IFNγ (clone XMG1.2), TNFα (clone MP6-XT22), CD11b (clone M1/70), CD11c […], F4/80 (clone BM8), Ly-6C (clone HK1.4), Ly-6G (clone 1A8), MHC-II (clone M5/114.15.2), CD80 (clone 16-10A1), CD86 (clone GL-1), MHC-I (clone KH114), FoxP3 (clone FJK-16 s; eBioscience), Phospho-IRF-3 (Ser396) (clone D601M, Cell signaling technology) and Phospho-TBK1/NAK (Ser172) (clone D52C2, Cell signaling technology). The following human antibodies were used in this study: cell surface markers includes CD45 (clone H130), CD11b (clone M1/70), CD11c (clone Bu15), CD80 (clone 2D10), CD86 (clone IT2.2), CD14 (clone 63D3), CD15 […], HLA-DR (clone L243) and HLA-A,B,C (clone W6/32); intracellular markers include CD163 (clone GHI/61), CD68 (clone Y1/82A) and CD206 (clone 15-2). Flow cytometry was performed on an LSRII (BD Biosciences) or Fortessa HTS (BD Biosciences) at DFCI Flow Cytometry Core, and all the data were analyzed using FlowJo software.

Another assay deals with DF101 PDX. The experiment in a line: DF101 ovarian PDX in NSG mice. The assay is classed as in vivo, human.
Description: as §1
Tumors were chopped and digested in collagenase buffer as described previously (Ding et al., 2018 Cell Rep 25, 2972-2980.e2975). Single cell suspensions of tumor and ascites were obtained by filtering through 70 um strainers and treated with 1× eBioscience RBC lysis buffer (Thermo Fisher) before staining. Single cells suspensions were incubated with LIVE/DEAD Fixable Aqua Dead Cell Stain (Life Technologies, Cat #L34965) for 30 min and then blocked with anti-CD16/32 (Biolegend, clone 93) for 20 min on ice. Samples were then incubated with appropriate antibodies for 30 min on ice. Foxp3 staining buffer set (eBioscience, Cat #00-5523-00) was applied for intracellular markers staining. For the intracellular cytokine analysis, cells were stimulated with Leukocyte Activation Cocktail (BD Biosciences, Cat #550583) at 37° C. for 4-6 hours prior to FACS staining. […] Flow cytometry was performed on an LSRII (BD Biosciences) or Fortessa HTS (BD Biosciences) at DFCI Flow Cytometry Core, and all the data were analyzed using FlowJo software.

Two compounds from patent US20250009743A1, “METHODS OF TREATING CANCERS USING STING AGONISTS” (Dana-Farber Cancer Institute, Inc., priority 2021, published 2025) can be followed below.

Turning to `O=C(c1cc(Cc2n[nH]c(=O)c3ccccc23)ccc1F)N1CCN(C(=O)C2CC2)CC1` [olaparib], the “STAT3-regulated chemokines (CCL2, CX3CL1, CCL20 and CXCL1) in CM” value with PBM tumor cells is “significantly increased”. In addition, the “IFNB, Ccl5 and Cxcl10 in BP-sgSTING cells” value in the assay with BP tumor cells (BP-sgSTING cells, FIG. 11D-F) is reported as “failed to up-regulate”. The “pro-inflammatory cytokines (Ifnb, Ccl5 and Cxcl10) in BP tumor cells” value in the assay with BP tumor cells (control medium or naive BMDM-CM, FIG. 6E) is “marked up-regulation”.

Turning to `COc1cc2cc(C(=O)CCC(=O)O)sc2cc1OC` [MSA-2], the “tumor immune microenvironment of large PE tumors” value in the assay with PE tumors [1] was “did not significantly affect”. The PE tumor growth entry in the assay on PE tumors [2] was “only modest therapeutic effects”. In addition, the “proportion of TAMs in ascites” value in the assay on DF86 PDX (FIG. 25H) is “decreased proportion of TAMs”. Also, in the assay with DF86 PDX (FIG. 25I), the “M1/M2 ratio in ascites” value is given as “increased M1/M2 ratio”. Besides, the “CD14^+ myeloid DCs (CD14^+HLA-DR^+)” value with DF86 PDX (FIG. 25J) is on record as “significantly increased”. Further, the “tumor burden (fold change of intensity of luciferase signal)” value with DF86 PDX (compared to control or olaparib treated mice, FIG. 25G) is “significantly decreased”. For the same compound, the “tumor response compared to DF86 PDX tumors” value in the assay on DF101 PDX (FIG. 26) is on record as “less responsive”. Also, in the assay on DF101 PDX (FIG. 26C-E), the “TAM phenotype in ascites” value was “reprogramed M2-like TAMs to M1-like” and the “proportion of TAMs in ascites” value is on record as “greatly decreased”.
